Source: PMC8882611, “Corylus avellana: A Source of Diarylheptanoids With α-Glucosidase Inhibitory Activity Evaluated by in vitro and in silico Studies” (Frontiers in Plant Science, 2022)

Legend:
[1] = biological target: α-glucosidase enzyme (from Saccharomyces cerevisiae) (Saccharomyces cerevisiae, UniProt P53341); test: biochemical; conditions: substrate 4-nitrophenyl α-D-glucopyranoside, pH 7.0, 37°C; samples 200, 300, 400 μM; mean ± SD of three experiments; read-out: α-Glucosidase inhibitory activity IC50 ± SD
Sequence of α-glucosidase enzyme (from Saccharomyces cerevisiae) (P53341 whole entry): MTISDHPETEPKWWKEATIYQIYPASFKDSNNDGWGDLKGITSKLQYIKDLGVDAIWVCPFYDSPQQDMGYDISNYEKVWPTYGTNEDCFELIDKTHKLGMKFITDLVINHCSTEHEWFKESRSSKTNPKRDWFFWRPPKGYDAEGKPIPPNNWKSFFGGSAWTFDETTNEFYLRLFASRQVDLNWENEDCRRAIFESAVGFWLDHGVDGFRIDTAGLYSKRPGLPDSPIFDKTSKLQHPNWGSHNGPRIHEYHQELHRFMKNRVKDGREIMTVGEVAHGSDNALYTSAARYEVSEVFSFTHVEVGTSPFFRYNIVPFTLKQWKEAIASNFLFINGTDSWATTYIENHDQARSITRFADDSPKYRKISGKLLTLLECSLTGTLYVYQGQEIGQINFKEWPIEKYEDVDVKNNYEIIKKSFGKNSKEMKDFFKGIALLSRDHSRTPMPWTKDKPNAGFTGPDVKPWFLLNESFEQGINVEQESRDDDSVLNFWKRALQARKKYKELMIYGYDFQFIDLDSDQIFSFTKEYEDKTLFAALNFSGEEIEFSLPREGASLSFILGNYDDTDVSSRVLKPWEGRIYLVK
Experimental: α-Glucosidase inhibitory activity was evaluated as previously reported ([Kilinc et al., 2020]). Briefly, 0.1 M phosphate buffer at pH 7.0 (150 μL) was added to each well; successively 10 μL of samples, dissolved in MeOH at different concentrations (200, 300, and 400 μM) were added; at this point, the reaction was initiated by the addition of 15 μL of the α-glucosidase enzyme (from Saccharomyces cerevisiae) (2 U/mL) in each well, and the plate was incubated for 5 min at 37°C; after 5 min 75 μL of the substrate (2.5 mM) 4-nitrophenyl α-D-glucopyranoside were added, and successively the plate was incubated for 10 min at 37°C. The absorbance was measured at 405 nm before (T0′) and after the incubation with the enzyme (T10′). […] Negative control absorbance (phosphate buffer in place of the sample) was also recorded. Inhibition of the enzyme was calculated, and the results were expressed as IC50 values. All experiments were carried out in triplicate. IC50 values were calculated through non-linear regression using Graphpad Prism 5 Software and expressed as means ± SD (standard deviation). They were considered statistically significant with values of p < 0.05.

[2] = system: Bacillus cereus, Staphylococcus aureus, Escherichia coli and Pseudomonas aeruginosa; parameters: method as in Cerulli et al., 2017; conditions: 40 μg/disk; tetracycline as positive control; ref Cerulli et al., 2017; cited from earlier work
plasma proteins = system: plasma proteins; parameters: method as in Cerulli et al., 2021; Masullo et al., 2021; conditions: 10 μM, ref Cerulli et al., 2021, Masullo et al.; cited from earlier work
[3] = system: H2O2– and H2O2/Fe2+-induced lipid peroxidation; parameters: method as in Masullo et al., 2015b; conditions: 10 μM; TBARS assay; ref Masullo et al., 2015b; cited from earlier work

Row | SMILES | IC50 [1] [µM] | other results
1 | O=C1/C=C/CCc2ccc(O)c(c2)Oc2ccc(cc2)CC1 [Giffonin Q (18), Giffonin Q] | 127 ± 5.9 | –
2 | O=C1/C=C/C=C/c2ccc(O)c(c2)Oc2ccc(cc2)CC1 [Giffonin R (19), Giffonin R] | 128 ± 6.1 | –
3 | O=C1C[C@@H](O)Cc2ccc(O)c(c2)-c2cc(ccc2O)C[C@H](O)[C@H]1O [Giffonin O (15), Giffonin O] | 124 ± 11.1 | –
4 | Oc1ccc2cc1-c1cc(ccc1O)C[C@H](O)[C@H](O)C(O)[C@@H](O)[C@H](O)C2 (stereo partly drawn) [Giffonin P (16), Giffonin P] | 55.3 ± 7.7 | –
5 | O=C1/C=C/CCc2ccc(O)c(c2)-c2cc(ccc2O)CC1 [Alnusone (21), Alnusone] | 154 ± 8.3 | –
6 | O=C1Cc2ccc(O)c(c2)-c2cc(ccc2O)C[C@@H](O)[C@@H](O)[C@@H](O)[C@H]1O [Giffonin U (23), Giffonin U] | 175 ± 9.8 | zones of inhibition [2]: completely comparable to those obtained with tetracycline
7 | O=C1CCc2ccc(O)c(c2)-c2cc(ccc2O)C[C@H](O)C[C@@H]1O [Giffonin M (13), Giffonin M] | 114 ± 9.7 | –
8 | O=C1CCc2ccc(OC3OC(CO)C(O)C(O)C3O)c(c2)-c2cc(ccc2O)CC(O)C(O)C1O (stereo not drawn) [Giffonin T (22), Giffonin T] | 131 ± 6.1 | –
9 | COc1c2cc(c(OC)c1O)Oc1ccc(cc1)CC[C@H](O)/C=C/C=C\2 [Giffonin G (7), Giffonin G] | 108 ± 9.2 | reduction of oxidation of thiol groups and carbonylation in plasma proteins (plasma proteins): most active compounds
10 | O=C1C=CCCc2ccc(OC3OC(CO)C(O)C(O)C3O)c(c2)-c2cc(ccc2OC2OCC(O)C(O)C2O)CC1 (stereo not drawn) [Giffonin I (9), Giffonin I] | 105 ± 4.9 | –
11 | O=C1CCc2ccc(O)c(c2)-c2cc(ccc2O)CC[C@@H](O)[C@H]1O [Giffonin V (25), Giffonin V] | 123 ± 4.4 | –
12 | COc1c2cc(c(OC)c1O)Oc1ccc(cc1)CCC(=O)C[C@H](O)/C=C\2 [Giffonin F (6), Giffonin F] | 146 ± 4.3 | –
13 | COc1c2cc(c(OC)c1O)Oc1ccc(cc1)[C@@H](O)C[C@@H](O)/C=C/C=C\2 [Giffonin K (11), Giffonin K] | 70 ± 3.1 | reduction of oxidation of thiol groups and carbonylation in plasma proteins (plasma proteins): most active compounds
14 | COc1c(O)cc2cc1Oc1ccc(cc1)CC[C@H](O)/C=C/C=C\2 [Giffonin H (8), Giffonin H] | 109 ± 2.9 | reduction of H2O2-induced lipid peroxidation [3]: more than 60%; reduction of H2O2/Fe2+-induced lipid peroxidation [3]: > 50%
15 | COc1c2cc(c(OC)c1O)Oc1ccc(cc1)[C@@H](O)C[C@@H](O)CC/C=C\2 [Giffonin J (10), Giffonin J] | 56.6 ± 9.6 | –
16 | COc1c2cc(c(OC)c1O)Oc1ccc(cc1)CCC(=O)CC/C=C\2 [Giffonin D (4), Giffonin D] | 108 ± 6.1 | reduction of H2O2-induced lipid peroxidation [3]: more than 60%; reduction of H2O2/Fe2+-induced lipid peroxidation [3]: > 50%
17 | Oc1ccc2cc1-c1cc(ccc1O)C[C@H](O)[C@@H](O)[C@H](O)C[C@@H](O)C2 [Giffonin L (12), Giffonin L] | 172 ± 8.9 | –
18 | O=C1CCc2ccc(O)c(c2)-c2cc(ccc2O)CC(OC2OC(CO)C(O)C(O)C2O)CC1O (stereo not drawn) [Giffonin N (14), Giffonin N] | 128 ± 11.3 | –
19 | O=C(CCc1ccc(O)c(O)c1)C[C@H](CCc1ccc(O)c(O)c1)O[C@@H]1OC[C@@H](O)[C@H](O)[C@H]1O [Oregonin (17), Oregonin] | 144 ± 7.2 | –
20 | COc1c2cc(c(OC)c1O)Oc1ccc(cc1)CCCC[C@H](O)/C=C\2 [Giffonin E (5), Giffonin E] | 167 ± 4.6 | –
21 | COc1c2cc(c(OC)c1O)Oc1ccc(cc1)[C@@H](O)CC(=O)CC/C=C/2 [Giffonin B (2), Giffonin B] | 164 ± 5.2 | –
22 | COc1c2cc(c(OC)c1O)Oc1ccc(cc1)CCC(=O)CC/C=C/2 [Giffonin A (1), Giffonin A] | 184 ± 6.9 | –
23 | O=C1CCc2ccc(O)c(c2)-c2cc(ccc2O)C[C@H](O)[C@H](O)[C@H]1O [Carpinontriol B (24), Carpinontriol B] | 107 ± 6.1 | zones of inhibition [2]: completely comparable to those obtained with tetracycline
24 | COc1cc2cc(c1O)Oc1ccc(cc1)CCC(=O)/C=C/C=C/2 [Giffonin S (20), Giffonin S] | 126 ± 8.9 | –
25 | COc1c2cc(c(OC)c1O)Oc1ccc(cc1)CC[C@H](O)CC/C=C\2 [Giffonin C (3), Giffonin C] | 105 ± 6.9 | –
